Assay results published in patent US20260232774A1, “COMPOSITIONS AND METHODS FOR TREATING INTESTINAL MICROBIOME DYSBIOSIS” (The Regents of the University of Michigan, priority 2023, published 2026).

System: GVHD in GF B6 BMT recipients
Details: mouse, in vivo
Description: (A) The details of the experimental design were shown in FIG. 12G to L. Quantification of iron in stool from colon and ileum in Allo B6 and Allo B6 deferasirox at 7 day and 21 day after BMT were shown (Day7, N=2, Day21, Vehicle: N=4, Deferasirox: N=2). (B) The percent of IFNγ+CD4, IFNγ+CD8, and Treg cells in spleen from recipients at day7 after BMT were shown (N=4). (C) The cytokine levels of IFNγ, TNFα, and IL17A in serum from recipients at day7 after BMT were shown (Vehicle: N=3, Deferasirox: N=4). (D to F) GF mice received BMT from BALB/c donor mice. BMT recipients were orally treated with deferasirox (20 mg/kg) and vehicle every day. (D) Hypoxyprobe staining and relative fluorescent intensity in colon from recipients 21 days after BMT (scale bar=50 μm). Three independent experiments were performed. Survival rate (E) and clinical GVHD score (F) of BMT recipients (Syn GF vehicle: N=2, Syn GF deferasirox: N=2, Allo GF vehicle: N=8, Allo GF deferasirox: N=10). The horizontal line in box (C) represents the median with the box bounding the interquartile range. The ends of the whisker lines represent the minimum and maximum values. […]
Because alteration of O2 affects host IECs in addition to the microbiome, we next determined whether restoring intestinal hypoxia by Fe chelation after allo-HSCT mitigated GVHD independent of its impact on dysbiosis. […]

O=C(O)c1ccc(-n2nc(-c3ccccc3O)nc2-c2ccccc2O)cc1 [deferasirox]
survival and GVHD of syngeneic GF mice: survived without GVHD
